We go through 4 molecules from patent US20060167048A1, “N-4-piperidinyl compounds as ccr5 modulators” (priority 2002, published 2006).

The target in data set [1] is recombinant human CCR5 receptor (Homo sapiens, UniProt P51681). In words: in vitro radioligand binding assay, inhibition of binding of iodinated RANTES or MIP-1α (scintillation proximity). Particulars: membranes from Chinese hamster ovary cells expressing recombinant human CCR5; 0.1 nM iodinated RANTES or MIP-1α; read-out: IC50 (concentration of compound which displaced 50% of bound iodinated RANTES or MIP-1α). How it is done:
The ability of compounds to inhibit the binding of RANTES or MIP-1α was assessed by an in vitro radioligand binding assay. Membranes were prepared from Chinese hamster ovary cells which expressed the recombinant human CCR5 receptor. These membranes were incubated with 0.1 nM iodinated RANTES or MP-1α, scintillation proximity beads and various concentrations of the compounds of the invention in 96-well plates. The amount of iodinated RANTES or MIP-1α bound to the receptor was determined by scintillation counting. Competition curves were obtained for compounds and the concentration of compound which displaced 50% of bound iodinated RANTES or MIP-1α was calculated (IC50).

recombinant human CCR5 receptor, sequence (P51681 whole entry): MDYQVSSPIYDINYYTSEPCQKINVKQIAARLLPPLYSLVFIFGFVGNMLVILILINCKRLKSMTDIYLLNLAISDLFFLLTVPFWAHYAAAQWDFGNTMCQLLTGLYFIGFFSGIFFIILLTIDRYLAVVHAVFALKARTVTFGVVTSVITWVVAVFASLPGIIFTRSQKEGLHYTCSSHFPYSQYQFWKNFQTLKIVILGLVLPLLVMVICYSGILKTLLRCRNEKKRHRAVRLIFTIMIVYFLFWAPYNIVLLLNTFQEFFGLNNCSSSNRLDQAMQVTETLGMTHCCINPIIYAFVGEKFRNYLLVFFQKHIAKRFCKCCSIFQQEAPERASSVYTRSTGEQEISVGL

Take `CCN(C(=O)Cc1ccc(S(C)(=O)=O)cc1)C1CCN(CC[C@H](NC(=O)C2CCN(C(C)=O)CC2)c2ccccc2)CC1` [Compound 1 of Table I, (S)-1-acetyl-piperidine-4-carboxylic acid [3-(4-{ethyl-[2-(4-methanesulfonyl-phenyl)-acetyl]-amino}-piperidin-1-yl)-1-phenyl-propyl]-amide]: the IC50 in data set [1] came out at 39 nM.
Regarding `CCN(C(=O)Cc1ccc(S(C)(=O)=O)cc1)C1CCN(CC[C@H](NC(=O)OC(C)(C)C)c2ccccc2)CC1` [Compound 1 of Table II, (S)-[3-(4-{ethyl-[2-(4-methanesulfonyl-phenyl)-acetyl]-amino}-piperidin-1-yl)-1-phenyl-propyl]-carbamic acid tert-butyl ester], the melting point lay in the range of 115 to 116 °C.
For `CCN(C(=O)Cc1ccc(S(C)(=O)=O)cc1)C1CCN(CC[C@H](NC(=O)OCCOC)c2ccccc2)CC1` [Compound 3 of Table II], the IC50 in data set [1] is 110 nM.
On the same count and under the same terms, for `CCN(C(=O)Cc1ccc(S(C)(=O)=O)cc1)C1CCN(CC[C@H](NC(=O)C2CCN(S(C)(=O)=O)CC2)c2ccccc2)CC1` [Compound 5 of Table I] the value was 28 nM.
